The text below walks through data of patent US20110263662A1, “1,2-DIAMIDO-ETHYLENE DERIVATIVES AS OREXIN ANTAGONISTS” (priority 2007, published 2011).

One assay concerns the target T1, human orexin-1 receptor (Homo sapiens, UniProt O43613).
T1 construct: expressed in transfected cells; host or cells: CHO (Chinese hamster ovary) cells, grown under G418 selection
T1 sequence (O43613 1-425): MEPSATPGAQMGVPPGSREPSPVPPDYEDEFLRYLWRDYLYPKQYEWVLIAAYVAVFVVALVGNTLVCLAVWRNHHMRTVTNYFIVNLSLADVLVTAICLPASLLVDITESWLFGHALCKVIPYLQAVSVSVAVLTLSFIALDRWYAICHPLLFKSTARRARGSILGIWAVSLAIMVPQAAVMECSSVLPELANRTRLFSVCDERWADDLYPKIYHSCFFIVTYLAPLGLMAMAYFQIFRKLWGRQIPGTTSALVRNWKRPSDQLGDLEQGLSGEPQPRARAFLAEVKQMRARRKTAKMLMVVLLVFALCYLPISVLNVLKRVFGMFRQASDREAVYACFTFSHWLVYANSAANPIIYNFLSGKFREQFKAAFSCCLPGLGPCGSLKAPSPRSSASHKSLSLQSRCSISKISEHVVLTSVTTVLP
Description: FLIPR intracellular calcium assay, orexin receptor antagonistic activity (OX1). The assay is classed as cell-based. Particulars: CHO cells expressing human orexin-1 receptor, 3 nM orexin-A. Here is the method:
(§1) Chinese hamster ovary (CHO) cells expressing the human orexin-1 receptor and the human orexin-2 receptor, respectively, are grown in culture medium (Ham F-12 with L-Glutamine) containing 300 μg/ml G418, 100 U/ml penicillin, 100 μg/ml streptomycin and 10% heat inactivated fetal calf serum (FCS). The cells are seeded at 20′000 cells/well into 384-well black clear bottom sterile plates (Greiner). The seeded plates are incubated overnight at 37° C. in 5% CO2.
(§2) Human orexin-A as an agonist is prepared as 1 mM stock solution in MeOH:water (1:1), diluted in HBSS containing 0.1% bovine serum albumin (BSA), NaHCO3:0.375 g/l and 20 mM HEPES for use in the assay at a final concentration of 3 nM.
(§3) Antagonists are prepared as 10 mM stock solution in DMSO, then diluted in 384-well plates, first in DMSO, then in HBSS containing 0.1% bovine serum albumin (BSA), NaHCO3: 0.375 g/l and 20 mM HEPES.
(§4) On the day of the assay, 50 μl of staining buffer (HBSS containing 1% FCS, 20 mM HEPES, NaHCO3: 0.375 g/l, 5 mM probenecid (Sigma) and 3 μM of the fluorescent calcium indicator fluo-4 AM (1 mM stock solution in DMSO, containing 10% pluronic) is added to each well.
(§5) The 384-well cell-plates are incubated for 50 min at 37° C. in 5% CO2 followed by equilibration at RT for 30-120 min before measurement.
(§6) Within the Fluorescent Imaging Plate Reader (FLIPR2 or FLIPR Tetra, Molecular Devices), antagonists are added to the plate in a volume of 10 μl/well, incubated for 10 min and finally 10 μl/well of agonist is added. Fluorescence is measured for each well at 1 second intervals, and the height of each fluorescence peak is compared to the height of the fluorescence peak induced by 3 nM orexin-A with vehicle in place of antagonist. For each antagonist, the IC50 value (the concentration of compound needed to inhibit 50% of the agonistic response) is determined. Optimized conditions may be achieved by adjustment of pipetting speed and cell splitting regime. The calculated IC50 values of the compounds may fluctuate depending on the daily cellular assay performance. Fluctuations of this kind are known to those skilled in the art.

The target in a further assay is T2, human orexin-2 receptor (Homo sapiens, UniProt O43614).
T2 construct: expressed in transfected cells; host or cells: CHO (Chinese hamster ovary) cells, grown under G418 selection
T2 sequence (O43614 1-444): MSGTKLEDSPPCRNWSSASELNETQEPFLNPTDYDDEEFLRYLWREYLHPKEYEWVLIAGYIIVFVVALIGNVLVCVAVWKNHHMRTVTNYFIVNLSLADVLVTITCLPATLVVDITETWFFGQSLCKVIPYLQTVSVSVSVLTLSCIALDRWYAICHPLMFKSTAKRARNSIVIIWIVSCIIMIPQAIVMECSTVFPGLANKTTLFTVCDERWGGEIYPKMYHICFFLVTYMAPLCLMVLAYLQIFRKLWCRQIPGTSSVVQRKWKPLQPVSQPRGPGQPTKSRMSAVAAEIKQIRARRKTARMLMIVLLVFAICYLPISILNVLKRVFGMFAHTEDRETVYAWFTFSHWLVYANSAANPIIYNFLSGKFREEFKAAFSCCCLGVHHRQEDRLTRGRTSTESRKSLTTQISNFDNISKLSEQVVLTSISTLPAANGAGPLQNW
Description: FLIPR intracellular calcium assay, orexin receptor antagonistic activity (OX2). Type of assay: cell-based. Particulars: CHO cells expressing human orexin-2 receptor, 3 nM orexin-A. Here is the method:
as §1, §2, §3, §4, §5, §6

Setting [1] is: FLIPR 2, geometric mean from n = 2 values.

SMILES strings stand for the structures.

For `Cc1nc(C(=O)N(C)C(CNC(=O)c2c(C)nc3sccn23)C2CC2)c(-c2ccccc2)s1` (racemic) [Example 47, 6-Methyl-imidazo[2,1-b]thiazole-5-carboxylic acid {(RS)-2-cyclopropyl-2-[methyl-(2-methyl-5-phenyl-thiazole-4-carbonyl)-amino]ethyl}-amide], the IC50 at human orexin-1 receptor (measured with FLIPR 2) turned out to be 0.112 µM; at human orexin-2 receptor (measured with FLIPR 2) it was 0.05 µM.

In the case of `Cc1nc(C(=O)NC(CNC(=O)c2c(C)nc3sccn23)C2CC2)c(-c2ccccc2)s1` (racemic) [Example 49, 6-Methyl-imidazo[2,1-b]thiazole-5-carboxylic acid {(RS)-2-cyclopropyl-2-[(2-methyl-5-phenyl-thiazole-4-carbonyl)-amino]-ethyl}-amide], the IC50 on human orexin-1 receptor (measured with FLIPR 2) came out at 0.037 µM; on human orexin-2 receptor (measured with FLIPR 2), 0.033 µM.

For the molecule `Cc1nc(C(=O)N(Cc2ccccc2)C(CNC(=O)c2c(C)nc3sccn23)Cc2ccccc2)c(-c2ccccc2)s1` (racemic) [Example 71, 6-Methyl-imidazo[2,1-b]thiazole-5-carboxylic acid {(RS)-2-[benzyl-(2-methyl-5-phenyl-thiazole-4-carbonyl)-amino]-3-phenyl-propyl}-amide], the IC50 stood at 0.027 µM at human orexin-1 receptor (measured with FLIPR 2) and 0.05 µM at human orexin-2 receptor (measured with FLIPR 2).

In the case of `Cc1nc2sccn2c1C(=O)NCC(Cc1ccccc1)NC(=O)c1ccccc1-c1ccccc1` (racemic) [Example 73, 6-Methyl-imidazo[2,1-b]thiazole-5-carboxylic acid {(RS)-2-[(biphenyl-2-carbonyl)-amino]-3-phenyl-propyl}-amide], the figures for the IC50 at human orexin-1 receptor (measured with FLIPR 2) and at human orexin-2 receptor (measured with FLIPR 2) were 0.119 µM and 0.019 µM, respectively.

On to `Cc1nc(C(=O)NC(CNC(=O)c2cccc3occc23)CC(C)C)c(-c2ccccc2)s1` (racemic) [Example 83, 2-Methyl-5-phenyl-thiazole-4-carboxylic acid ((RS)-1-{[(benzofuran-4-carbonyl)-amino]-methyl}-3-methyl-butyl)-amide], for which the IC50 at human orexin-1 receptor (measured with FLIPR 2) amounted to 0.437 µM; at human orexin-2 receptor (measured with FLIPR 2), 0.303 µM.

Consider `Cc1nc2sccn2c1C(=O)NCC(CC(C)C)NC(=O)c1ccccc1-c1ccccc1` (racemic) [Example 88, 6-Methyl-imidazo[2,1-b]thiazole-5-carboxylic acid {(RS)-2-[(biphenyl-2-carbonyl)-amino]-4-methyl-pentyl}-amide], for which the results for the 50% inhibitory concentration (IC50) at human orexin-1 receptor (measured with FLIPR 2) and at human orexin-2 receptor (measured with FLIPR 2) were 0.084 µM and 0.046 µM, respectively.

Consider `Cc1nc2sccn2c1C(=O)NCC(C)N(Cc1ccccc1)C(=O)c1ccccc1-c1ccccc1` (racemic) [Example 97, 6-Methyl-imidazo[2,1-b]thiazole-5-carboxylic acid {(RS)-2-[benzyl-(biphenyl-2-carbonyl)-amino]-propyl}-amide], for which the IC50 came out at 0.0057 µM at human orexin-1 receptor (measured with FLIPR 2) and 0.0058 µM on human orexin-2 receptor (measured with FLIPR 2).

As for `Cc1nc2sccn2c1C(=O)NCC(C(C)C)N(Cc1ccccc1)C(=O)c1ccccc1-c1ccccc1` (racemic) [Example 99, 6-Methyl-imidazo[2,1-b]thiazole-5-carboxylic acid {(RS)-2-[benzyl-(biphenyl-2-carbonyl)-amino]-3-methyl-butyl}-amide], the figures for the IC50 at human orexin-1 receptor (measured with FLIPR 2) and on human orexin-2 receptor (measured with FLIPR 2) were 0.114 µM and 0.718 µM, respectively.

`Cc1nc(C(=O)N(CCNC(=O)c2cccc3occc23)Cc2ccccc2)c(-c2ccc(F)cc2)s1` [Example 2, 5-(4-Fluoro-phenyl)-2-methyl-thiazole-4-carboxylic acid {2-[(benzofuran-4-carbonyl)-amino]-ethyl}-benzyl-amide]: the IC50 came to 0.242 µM at human orexin-1 receptor (setting [1]) and 0.035 µM at human orexin-2 receptor (setting [1]).

As for `Cc1nc(C(=O)N(C)CCNC(=O)c2cccc3occc23)c(-c2ccc(F)cc2)s1` [Example 3, 5-(4-Fluoro-phenyl)-2-methyl-thiazole-4-carboxylic acid {2-[(benzofuran-4-carbonyl)-amino]-ethyl}-methyl-amide], the IC50 was found to be 0.15 µM on human orexin-1 receptor (setting [1]) and 0.027 µM at human orexin-2 receptor (setting [1]).
